{"source": "ChEMBL document CHEMBL5291721", "about": "“A preclinical secondary pharmacology resource illuminates target-adverse drug reaction associations of marketed drugs” (Nat Commun, 2023); further: assay procedure not described here", "key": {"[1]": {"biological_target": "Beta-1 adrenergic receptor (Homo sapiens, UniProt P08588)", "sequence (P08588 whole entry)": "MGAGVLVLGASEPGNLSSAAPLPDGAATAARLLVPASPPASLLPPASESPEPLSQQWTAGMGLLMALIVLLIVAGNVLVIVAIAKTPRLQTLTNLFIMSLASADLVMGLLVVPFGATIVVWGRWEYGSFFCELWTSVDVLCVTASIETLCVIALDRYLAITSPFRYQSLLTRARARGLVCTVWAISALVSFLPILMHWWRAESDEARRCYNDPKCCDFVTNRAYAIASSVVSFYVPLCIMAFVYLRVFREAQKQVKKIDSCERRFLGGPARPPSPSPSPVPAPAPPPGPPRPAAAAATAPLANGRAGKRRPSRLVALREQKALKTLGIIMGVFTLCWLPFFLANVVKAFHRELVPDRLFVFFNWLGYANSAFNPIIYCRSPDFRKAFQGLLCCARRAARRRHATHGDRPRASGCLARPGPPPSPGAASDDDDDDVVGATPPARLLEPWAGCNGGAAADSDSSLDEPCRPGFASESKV", "type": "functional, cell-based"}, "Histamine H1 receptor": {"biological_target": "Histamine H1 receptor (Homo sapiens, UniProt P35367)", "sequence (P35367 whole entry)": "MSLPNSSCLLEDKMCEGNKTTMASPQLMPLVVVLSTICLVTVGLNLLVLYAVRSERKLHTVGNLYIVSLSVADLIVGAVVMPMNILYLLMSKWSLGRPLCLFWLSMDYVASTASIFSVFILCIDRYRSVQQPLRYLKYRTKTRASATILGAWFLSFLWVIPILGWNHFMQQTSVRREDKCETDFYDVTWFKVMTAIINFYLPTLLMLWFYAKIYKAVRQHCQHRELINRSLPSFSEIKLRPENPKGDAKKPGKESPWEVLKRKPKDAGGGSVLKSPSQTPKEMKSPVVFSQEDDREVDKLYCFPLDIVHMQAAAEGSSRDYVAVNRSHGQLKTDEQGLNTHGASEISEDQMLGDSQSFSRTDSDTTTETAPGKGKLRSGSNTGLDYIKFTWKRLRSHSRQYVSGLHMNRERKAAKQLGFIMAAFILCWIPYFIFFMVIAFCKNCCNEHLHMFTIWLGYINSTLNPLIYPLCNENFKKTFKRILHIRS", "type": "functional, cell-based"}, "Substance-P receptor": {"biological_target": "Substance-P receptor (Homo sapiens, UniProt P25103)", "sequence (P25103 whole entry)": "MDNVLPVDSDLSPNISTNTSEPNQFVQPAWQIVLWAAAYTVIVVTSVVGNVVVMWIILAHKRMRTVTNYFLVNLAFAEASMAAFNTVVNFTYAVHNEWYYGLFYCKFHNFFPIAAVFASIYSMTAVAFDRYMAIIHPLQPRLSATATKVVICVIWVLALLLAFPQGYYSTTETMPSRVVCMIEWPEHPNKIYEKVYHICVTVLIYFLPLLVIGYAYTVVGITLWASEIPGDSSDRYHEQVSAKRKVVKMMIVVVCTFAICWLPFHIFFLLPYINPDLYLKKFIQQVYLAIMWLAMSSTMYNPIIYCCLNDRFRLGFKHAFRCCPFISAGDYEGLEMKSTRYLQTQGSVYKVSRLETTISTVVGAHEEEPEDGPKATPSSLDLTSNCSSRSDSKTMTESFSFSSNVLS"}, "[2]": {"biological_target": "T1, Muscarinic acetylcholine receptor M4 (Homo sapiens, UniProt P08173)", "T1 sequence (P08173 whole entry)": "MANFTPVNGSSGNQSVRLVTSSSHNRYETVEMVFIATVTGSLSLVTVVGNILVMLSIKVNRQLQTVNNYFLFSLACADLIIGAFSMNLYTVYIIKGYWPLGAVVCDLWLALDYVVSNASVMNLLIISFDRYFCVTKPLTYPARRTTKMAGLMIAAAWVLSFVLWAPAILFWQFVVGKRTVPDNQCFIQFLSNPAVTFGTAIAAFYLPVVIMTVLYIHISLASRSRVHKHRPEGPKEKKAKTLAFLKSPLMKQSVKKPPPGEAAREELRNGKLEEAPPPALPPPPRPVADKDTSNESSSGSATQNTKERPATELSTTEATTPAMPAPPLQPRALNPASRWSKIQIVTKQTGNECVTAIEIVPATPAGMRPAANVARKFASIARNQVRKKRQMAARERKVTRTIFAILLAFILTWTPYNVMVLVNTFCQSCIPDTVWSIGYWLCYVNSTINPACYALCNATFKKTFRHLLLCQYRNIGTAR"}, "[3]": {"biological_target": "T2, Muscarinic acetylcholine receptor M5 (Homo sapiens, UniProt P08912)", "T2 sequence (P08912 whole entry)": "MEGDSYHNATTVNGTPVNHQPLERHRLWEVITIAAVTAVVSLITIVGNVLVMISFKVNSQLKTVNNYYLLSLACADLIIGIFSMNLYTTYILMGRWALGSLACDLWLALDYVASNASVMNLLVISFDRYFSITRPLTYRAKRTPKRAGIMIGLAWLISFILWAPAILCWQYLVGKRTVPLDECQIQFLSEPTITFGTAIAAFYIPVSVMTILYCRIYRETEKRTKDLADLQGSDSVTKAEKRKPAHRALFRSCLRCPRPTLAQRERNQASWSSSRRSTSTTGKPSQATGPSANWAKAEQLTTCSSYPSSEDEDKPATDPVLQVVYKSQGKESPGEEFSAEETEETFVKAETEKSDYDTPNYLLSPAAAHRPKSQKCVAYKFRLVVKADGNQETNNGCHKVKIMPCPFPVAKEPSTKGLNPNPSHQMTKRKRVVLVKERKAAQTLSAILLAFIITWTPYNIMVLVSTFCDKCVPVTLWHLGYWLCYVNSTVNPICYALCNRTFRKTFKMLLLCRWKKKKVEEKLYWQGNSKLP"}, "[4]": {"biological_target": "T3, Alpha-1A adrenergic receptor (Homo sapiens, UniProt P35348)", "T3 sequence (P35348 whole entry)": "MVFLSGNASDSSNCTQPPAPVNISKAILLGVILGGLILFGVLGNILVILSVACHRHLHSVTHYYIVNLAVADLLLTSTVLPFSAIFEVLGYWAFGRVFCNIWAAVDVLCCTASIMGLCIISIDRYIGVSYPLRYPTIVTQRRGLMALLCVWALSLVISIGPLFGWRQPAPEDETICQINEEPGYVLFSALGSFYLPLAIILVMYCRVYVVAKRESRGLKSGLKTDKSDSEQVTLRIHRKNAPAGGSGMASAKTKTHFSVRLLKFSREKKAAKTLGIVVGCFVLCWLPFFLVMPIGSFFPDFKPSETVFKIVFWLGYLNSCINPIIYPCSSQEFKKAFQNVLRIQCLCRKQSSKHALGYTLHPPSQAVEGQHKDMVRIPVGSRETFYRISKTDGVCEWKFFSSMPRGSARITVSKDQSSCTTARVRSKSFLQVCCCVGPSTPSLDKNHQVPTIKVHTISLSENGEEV"}, "D(1A) dopamine receptor": {"biological_target": "D(1A) dopamine receptor (Homo sapiens, UniProt P21728)", "sequence (P21728 whole entry)": "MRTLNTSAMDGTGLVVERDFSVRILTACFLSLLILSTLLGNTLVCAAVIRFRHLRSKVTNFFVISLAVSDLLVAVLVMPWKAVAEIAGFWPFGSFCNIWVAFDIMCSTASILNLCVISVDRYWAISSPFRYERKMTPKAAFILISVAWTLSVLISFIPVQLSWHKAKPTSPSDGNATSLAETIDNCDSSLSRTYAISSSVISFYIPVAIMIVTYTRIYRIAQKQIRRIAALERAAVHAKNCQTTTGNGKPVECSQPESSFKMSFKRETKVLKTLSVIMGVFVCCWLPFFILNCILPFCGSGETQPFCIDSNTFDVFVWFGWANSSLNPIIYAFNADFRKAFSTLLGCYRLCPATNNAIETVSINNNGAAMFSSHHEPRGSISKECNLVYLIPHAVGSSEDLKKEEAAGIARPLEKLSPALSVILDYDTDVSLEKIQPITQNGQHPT"}, "[5]": {"biological_target": "5-hydroxytryptamine receptor 7 (Homo sapiens, UniProt P34969)", "sequence (P34969 whole entry)": "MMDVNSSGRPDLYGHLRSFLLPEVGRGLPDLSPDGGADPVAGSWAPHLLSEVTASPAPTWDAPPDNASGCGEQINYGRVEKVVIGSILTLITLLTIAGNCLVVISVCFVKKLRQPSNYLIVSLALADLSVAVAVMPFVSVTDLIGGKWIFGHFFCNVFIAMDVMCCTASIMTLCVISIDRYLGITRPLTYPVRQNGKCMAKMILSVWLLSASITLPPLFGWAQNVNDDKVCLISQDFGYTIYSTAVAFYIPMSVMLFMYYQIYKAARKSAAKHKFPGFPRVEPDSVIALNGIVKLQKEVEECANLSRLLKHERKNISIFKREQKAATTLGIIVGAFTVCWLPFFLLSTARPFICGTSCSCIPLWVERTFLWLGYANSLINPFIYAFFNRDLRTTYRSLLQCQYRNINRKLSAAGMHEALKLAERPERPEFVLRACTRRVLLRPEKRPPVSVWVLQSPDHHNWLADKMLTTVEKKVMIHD"}, "Substance-K receptor": {"biological_target": "T4, Substance-K receptor (Homo sapiens, UniProt P21452)", "T4 sequence (P21452 whole entry)": "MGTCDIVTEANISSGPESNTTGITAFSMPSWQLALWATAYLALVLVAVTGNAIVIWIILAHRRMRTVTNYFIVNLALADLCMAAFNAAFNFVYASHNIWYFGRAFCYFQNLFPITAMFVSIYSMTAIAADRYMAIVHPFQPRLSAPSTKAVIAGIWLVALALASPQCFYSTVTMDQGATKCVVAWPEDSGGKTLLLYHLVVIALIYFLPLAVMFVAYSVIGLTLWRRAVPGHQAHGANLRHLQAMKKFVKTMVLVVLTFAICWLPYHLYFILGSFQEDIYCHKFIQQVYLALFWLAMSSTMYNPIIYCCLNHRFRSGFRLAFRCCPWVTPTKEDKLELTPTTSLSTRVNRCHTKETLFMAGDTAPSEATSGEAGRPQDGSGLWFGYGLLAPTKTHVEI"}, "[6]": {"biological_target": "T5, Gastric inhibitory polypeptide receptor (Homo sapiens, UniProt P48546)", "T5 sequence (P48546 whole entry)": "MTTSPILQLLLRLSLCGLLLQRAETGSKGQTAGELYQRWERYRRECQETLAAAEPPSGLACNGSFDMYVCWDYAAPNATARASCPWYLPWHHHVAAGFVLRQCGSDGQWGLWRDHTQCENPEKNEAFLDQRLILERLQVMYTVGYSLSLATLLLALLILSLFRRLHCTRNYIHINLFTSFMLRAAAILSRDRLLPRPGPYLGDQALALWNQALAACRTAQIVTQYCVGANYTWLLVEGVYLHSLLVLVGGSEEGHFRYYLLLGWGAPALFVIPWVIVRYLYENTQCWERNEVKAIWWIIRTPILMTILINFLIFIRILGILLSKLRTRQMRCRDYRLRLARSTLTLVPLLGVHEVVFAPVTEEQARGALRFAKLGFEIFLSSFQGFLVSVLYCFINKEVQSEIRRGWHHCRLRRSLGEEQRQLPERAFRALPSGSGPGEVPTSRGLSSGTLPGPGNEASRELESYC"}}, "data": [{"smiles": "C[N+](C)(C)CCOP(=O)([O-])OC[C@H](O)CO", "values": [{"measurement": "AC50", "setting": "[1]", "value": "> 30", "unit": "µM"}]}, {"smiles": "CN(C)C/C=C/C(=O)Nc1cc2c(Nc3ccc(F)c(Cl)c3)ncnc2cc1O[C@H]1CCOC1", "note": "[AFATINIB]", "values": [{"measurement": "AC50", "setting": "Histamine H1 receptor", "value": "> 30", "unit": "µM"}]}, {"smiles": "O=C(/C=C/c1cccc(S(=O)(=O)Nc2ccccc2)c1)NO", "note": "[BELINOSTAT]", "values": [{"measurement": "AC50", "setting": "Substance-P receptor", "value": "> 10", "unit": "µM"}, {"measurement": "AC50", "setting": "[2]", "value": "> 10", "unit": "µM"}, {"measurement": "AC50", "setting": "[3]", "value": "> 10", "unit": "µM"}, {"measurement": "AC50", "setting": "[4]", "value": "> 30", "unit": "µM"}, {"measurement": "AC50", "setting": "D(1A) dopamine receptor", "value": "> 30", "unit": "µM"}, {"measurement": "AC50", "setting": "[5]", "value": "> 10", "unit": "µM"}, {"measurement": "AC50", "setting": "Substance-K receptor", "value": "> 10", "unit": "µM"}]}, {"smiles": "CC(O)(CS(=O)(=O)c1ccc(F)cc1)C(=O)Nc1ccc(C#N)c(C(F)(F)F)c1", "note": "(stereo not given) [BICALUTAMIDE]", "values": [{"measurement": "AC50", "setting": "[6]", "value": "> 30", "unit": "µM"}, {"measurement": "AC50", "setting": "Substance-P receptor", "value": "> 10", "unit": "µM"}, {"measurement": "AC50", "setting": "[3]", "value": "> 10", "unit": "µM"}, {"measurement": "AC50", "setting": "[5]", "value": "> 10", "unit": "µM"}]}, {"smiles": "O=C(O)COCCN1CCN(C(c2ccccc2)c2ccc(Cl)cc2)CC1", "note": "(stereo not given) [CETIRIZINE]", "values": [{"measurement": "AC50", "setting": "[6]", "value": "> 30", "unit": "µM"}, {"measurement": "AC50", "setting": "Substance-P receptor", "value": "> 10", "unit": "µM"}]}, {"smiles": "NC[C@H]1CC[C@H](C(=O)Oc2ccc(CCC(=O)O)cc2)CC1", "note": "[CETRAXATE]", "values": [{"measurement": "AC50", "setting": "[4]", "value": "> 30", "unit": "µM"}, {"measurement": "AC50", "setting": "D(1A) dopamine receptor", "value": "> 30", "unit": "µM"}]}, {"smiles": "C[C@@H]1C[C@H]2[C@@H]3C[C@H](F)C4=CC(=O)C=C[C@]4(C)[C@@]3(F)[C@@H](O)C[C@]2(C)[C@@]1(OC(=O)c1ccco1)C(=O)SCF", "note": "[FLUTICASONE FUROATE]", "values": [{"measurement": "AC50", "setting": "[2]", "value": "> 10", "unit": "µM"}, {"measurement": "AC50", "setting": "[3]", "value": "> 10", "unit": "µM"}, {"measurement": "AC50", "setting": "[5]", "value": "> 10", "unit": "µM"}, {"measurement": "AC50", "setting": "Substance-K receptor", "value": "> 10", "unit": "µM"}]}, {"smiles": "CNCCc1ccc(OC(=O)C(C)C)c(OC(=O)C(C)C)c1", "note": "[IBOPAMINE]", "values": [{"measurement": "AC50", "setting": "[1]", "value": "> 30", "unit": "µM"}]}, {"smiles": "CN(C)CCCN1c2ccccc2CCc2ccccc21", "note": "[IMIPRAMINE]", "values": [{"measurement": "AC50", "setting": "[6]", "value": "> 30", "unit": "µM"}, {"measurement": "AC50", "setting": "Substance-P receptor", "value": "> 10", "unit": "µM"}, {"measurement": "AC50", "setting": "[2]", "value": 1.07, "unit": "µM"}, {"measurement": "AC50", "setting": "[3]", "value": 0.33, "unit": "µM"}, {"measurement": "AC50", "setting": "[5]", "value": "> 10", "unit": "µM"}, {"measurement": "AC50", "setting": "Substance-K receptor", "value": "> 10", "unit": "µM"}]}, {"smiles": "COC(=O)C1=C(C)NC(C)=C(C(=O)OCCN2CCN(C(c3ccccc3)c3ccccc3)CC2)C1c1cccc([N+](=O)[O-])c1", "note": "(stereo not given) [MANIDIPINE 6300]", "values": [{"measurement": "AC50", "setting": "[1]", "value": "> 30", "unit": "µM"}]}, {"smiles": "CN(Cc1cnc2nc(N)nc(N)c2n1)c1ccc(C(=O)N[C@@H](CCC(=O)O)C(=O)O)cc1", "note": "[METHOTREXATE]", "values": [{"measurement": "AC50", "setting": "[6]", "value": "> 30", "unit": "µM"}]}, {"smiles": "OC[C@H]1O[C@@H](n2cnc3c2NC=NC[C@H]3O)C[C@@H]1O", "note": "[PENTOSTATIN]", "values": [{"measurement": "AC50", "setting": "Histamine H1 receptor", "value": "> 30", "unit": "µM"}]}, {"smiles": "CN[C@@H](C)[C@@H](O)c1ccccc1", "note": "[PSEUDOEPHEDRINE]", "values": [{"measurement": "AC50", "setting": "[6]", "value": "> 30", "unit": "µM"}, {"measurement": "AC50", "setting": "Substance-P receptor", "value": "> 10", "unit": "µM"}]}, {"smiles": "CCCN1CC(NS(=O)(=O)N(CC)CC)CC2Cc3c(O)cccc3CC21", "note": "(stereo not given) [QUINAGOLIDE]", "values": [{"measurement": "AC50", "setting": "[1]", "value": "> 30", "unit": "µM"}]}, {"smiles": "O=C1OC(OC(=O)c2cccnc2Nc2cccc(C(F)(F)F)c2)c2ccccc21", "note": "(stereo not given) [TALNIFLUMATE]", "values": [{"measurement": "AC50", "setting": "Histamine H1 receptor", "value": "> 30", "unit": "µM"}]}, {"smiles": "O=S1(=O)CCN(CN2CCS(=O)(=O)NC2)CN1", "note": "[TAUROLIDINE]", "values": [{"measurement": "AC50", "setting": "Histamine H1 receptor", "value": "> 30", "unit": "µM"}, {"measurement": "AC50", "setting": "[4]", "value": "> 30", "unit": "µM"}, {"measurement": "AC50", "setting": "D(1A) dopamine receptor", "value": "> 30", "unit": "µM"}]}, {"smiles": "COc1ccc2c(C(=S)N(C)CC(=O)O)cccc2c1C(F)(F)F", "note": "[TOLRESTAT]", "values": [{"measurement": "AC50", "setting": "[4]", "value": "> 30", "unit": "µM"}, {"measurement": "AC50", "setting": "D(1A) dopamine receptor", "value": "> 30", "unit": "µM"}]}]}
